Experiment [1] concerns the target T1, human PI3Kα protein (Homo sapiens, UniProt P42336).
T1 construct: purchased Carna Biosciences, Inc; host or cells: Baculovirus expression system
Nature of the experiment: PI3Kα enzyme assay (ADP-Glo kinase assay). In kind it is biochemical. The note with it: 3 nM PI3Kα, 50 μM PIP2, 100 μM ATP. As for the experimental part:
Evaluation of the PI3Kα inhibitory activity of the compound of the present invention was carried out according to the method as described below.
For the PI3Kα enzyme assay, biotinylated product of a human PI3Kα protein produced using a Baculovirus expression system (Carna Biosciences, Inc.) was used. Further, for the detection of the enzyme activity, an ADP-Glo kinase assay (PROMEGA Corporation) was used.
10 μL of a reaction solution (3 nM PI3Kα, 40 mM Tris-HCl, 20 mM MgCl2, 0.1% BSA, pH 7.5) including the human PI3Kα protein and a test compound at a predetermined concentration was incubated at room temperature for 15 minutes. Thereafter, 5 μL of a mixed solution of L-α-Phosphatidylinositol 4,5-diphosphate (PIP2) (SIGMA-ALDLICH) which was a substrate and ATP(SIGMA-ALDLICH) was added thereto to a final concentration of 50 μM and 100 μM, respectively, and the reaction solution was further incubated at 25° C. for 60 minutes to carry out an enzyme reaction.
After the reaction, 15 μL of an ADP-Glo reagent (PROMEGA Corporation) was added and the resulting liquid was incubated at room temperature for 60 minutes, whereby the enzyme reaction was stopped. Thereafter, after further adding 30 μL of a Kinase Detection Reagent (PROMEGA Corporation) and standing the resulting solution at room temperature for 40 minutes, ADP produced by the enzyme reaction was quantified by luminescence intensity.
For the measurement of luminescence intensity, EnVision (PerkinElmer, Inc.) was used.
(§1) The inhibitory activity of the compounds was evaluated using an IC50 (50% inhibitory concentration). The IC50 was calculated using XLfit (IDBS).
Background: ADP-Glo first removes unused ATP, then detects ADP through luciferase.

The target of experiment [2] is T2, glutathione S-transferase (GST)-fusion human ERK2 protein (Homo sapiens, UniProt P28482).
T2 construct: purchased Carna Biosciences, Inc; host or cells: E. coli expression system
T2 sequence (P28482 whole entry, the tested form may be a part): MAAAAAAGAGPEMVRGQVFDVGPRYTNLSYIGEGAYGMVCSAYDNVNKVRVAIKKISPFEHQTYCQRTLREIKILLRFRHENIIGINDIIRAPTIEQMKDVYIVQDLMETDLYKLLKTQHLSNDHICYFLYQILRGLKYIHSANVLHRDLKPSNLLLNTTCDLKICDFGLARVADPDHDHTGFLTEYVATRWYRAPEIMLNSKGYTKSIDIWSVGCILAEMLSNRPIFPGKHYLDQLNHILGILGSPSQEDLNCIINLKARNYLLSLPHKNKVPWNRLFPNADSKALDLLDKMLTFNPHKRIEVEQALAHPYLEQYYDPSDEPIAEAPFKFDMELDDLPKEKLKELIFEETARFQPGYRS
Nature of the experiment: ERK2 enzyme assay (LabChip mobility shift). It counts as biochemical. Particulars: 2 nM ERK2, 4.25 μM FL-Peptide 8, 43 μM ATP. Here is the method: Evaluation of the ERK2 inhibitory activity of the compound of the present invention was carried out according to the method as described below.
For the ERK2 enzyme assay, a glutathione S-transferase (GST)-fusion human ERK2 protein (Carna Biosciences, Inc.) produced using an E. coli expression system was used.
12 μL of the reaction solution (2 nM ERK2, 100 mM Hepes, 10 mM MgCl2, 1.5 mM DTT, 0.003% Brij35, pH 7.5) including the ERK2 protein and a test compound at a predetermined concentration was incubatedat room temperature for 15 minutes. Thereafter, 3 μL of a mixed solution of FL-Peptide 8 (5-FAM-IPTSPITTTYFFFKKK-COOH) (Caliper Lifescience) which was a substrate and ATP(SIGMA-ALDLICH) were added thereto to a final concentration of 4.25 μM and 43 μM, respectively. The reaction solution was further incubated at 25° C. for 120 minutes to carry out an enzyme reaction.
The enzyme reaction was stopped by adding 27 μL of a reaction-stopping solution (100 mM HEPES, 11.2 mM EDTA, 5.6% Brij35, pH 7.5) including a 0.5% Coating reagent 8 (PerkinElmer, Inc.) after the reaction. Thereafter, non-phosphorylated peptides and phosphorylated peptides were separated using LabChip Ez Reader (Caliper LifeScience, Inc.) to quantify the proportion of phosphorylated peptides.
as §1

Where [3] appears, read: IC50 class, read-out: PI3Kα Inhibitory Activity.
Setting [4] is: IC50 class, read-out: ERK2 Inhibitory Activity.

Molecules are shown by their SMILES. Like-named read-outs stand apart in the source and are kept apart here.

The results in this text go back to US8841456B2, “1,5-naphthyridine derivative or salt thereof” (FUJIFILM Corporation, priority 2011, dated 2014).

T1 sequence (P42336 whole entry): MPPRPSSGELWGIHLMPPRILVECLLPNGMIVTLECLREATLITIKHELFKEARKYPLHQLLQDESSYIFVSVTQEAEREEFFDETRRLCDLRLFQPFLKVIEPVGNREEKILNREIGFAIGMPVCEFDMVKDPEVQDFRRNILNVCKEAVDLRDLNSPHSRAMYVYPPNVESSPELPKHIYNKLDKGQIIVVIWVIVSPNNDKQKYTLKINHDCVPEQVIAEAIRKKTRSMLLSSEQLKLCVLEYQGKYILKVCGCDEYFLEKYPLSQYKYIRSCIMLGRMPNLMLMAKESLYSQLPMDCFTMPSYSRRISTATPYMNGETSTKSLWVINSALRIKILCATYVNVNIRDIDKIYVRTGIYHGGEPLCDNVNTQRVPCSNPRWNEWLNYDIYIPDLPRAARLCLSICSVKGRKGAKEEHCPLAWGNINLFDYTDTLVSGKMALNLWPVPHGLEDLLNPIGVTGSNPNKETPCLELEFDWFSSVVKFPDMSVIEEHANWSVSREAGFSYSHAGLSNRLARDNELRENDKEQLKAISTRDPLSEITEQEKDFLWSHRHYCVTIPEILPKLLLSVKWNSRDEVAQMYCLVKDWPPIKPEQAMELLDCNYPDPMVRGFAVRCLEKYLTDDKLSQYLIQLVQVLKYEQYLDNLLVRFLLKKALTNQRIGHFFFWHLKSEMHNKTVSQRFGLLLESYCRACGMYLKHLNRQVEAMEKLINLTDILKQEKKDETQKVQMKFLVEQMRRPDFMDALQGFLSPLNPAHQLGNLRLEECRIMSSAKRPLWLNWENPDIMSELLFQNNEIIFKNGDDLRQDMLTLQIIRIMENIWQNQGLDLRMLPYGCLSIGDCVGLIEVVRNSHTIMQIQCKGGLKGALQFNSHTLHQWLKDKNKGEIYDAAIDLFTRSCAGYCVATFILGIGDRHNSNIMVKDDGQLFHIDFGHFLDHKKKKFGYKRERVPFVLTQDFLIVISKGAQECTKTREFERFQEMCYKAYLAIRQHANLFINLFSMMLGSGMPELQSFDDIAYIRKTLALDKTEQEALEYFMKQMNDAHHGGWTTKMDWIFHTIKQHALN
T1 sequence (P27986 whole entry partner): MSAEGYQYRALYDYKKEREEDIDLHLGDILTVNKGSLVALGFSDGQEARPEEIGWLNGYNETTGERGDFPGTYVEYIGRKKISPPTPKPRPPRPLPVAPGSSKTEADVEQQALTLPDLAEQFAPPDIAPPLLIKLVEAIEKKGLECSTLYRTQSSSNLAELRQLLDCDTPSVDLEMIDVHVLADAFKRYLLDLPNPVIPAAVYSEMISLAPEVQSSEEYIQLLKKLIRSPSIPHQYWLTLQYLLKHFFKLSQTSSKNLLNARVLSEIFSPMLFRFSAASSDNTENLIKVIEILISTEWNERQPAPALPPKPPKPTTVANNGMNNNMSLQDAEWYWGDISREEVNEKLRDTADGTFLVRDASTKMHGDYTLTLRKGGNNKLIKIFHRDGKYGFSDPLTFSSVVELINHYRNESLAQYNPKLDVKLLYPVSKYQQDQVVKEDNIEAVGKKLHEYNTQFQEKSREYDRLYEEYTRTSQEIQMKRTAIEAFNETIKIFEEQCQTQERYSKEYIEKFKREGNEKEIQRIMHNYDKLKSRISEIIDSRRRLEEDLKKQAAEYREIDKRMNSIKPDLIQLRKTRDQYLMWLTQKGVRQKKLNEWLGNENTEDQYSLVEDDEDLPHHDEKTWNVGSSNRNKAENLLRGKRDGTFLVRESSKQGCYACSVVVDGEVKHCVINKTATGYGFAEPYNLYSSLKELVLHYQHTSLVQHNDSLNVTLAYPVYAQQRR

As for `C[C@@H](C[C@H](C)Oc1ccccc1)NC(=O)Nc1ccc2ncc(-c3cn[nH]c3)cc2n1` [Compound 0163], the IC50 in experiment [1] (setting [3]) and in experiment [2] (setting [4]) was 100 to 1000 nM each time.
On to `COCCn1cc(-c2cnc3ccc(NC(=O)NC4CCCC4)nc3c2)cn1` [Compound 0032], for which the IC50 in experiment [1] (setting [3]) and in experiment [2] (setting [4]) was below 100 nM throughout.
On to `O=C(NCc1cccnc1)Nc1ccc2ncc(-c3cn[nH]c3)cc2n1` [Compound 0102], for which the IC50 in experiment [1] (setting [3]) is 1000 to 10000 nM; in experiment [2] (setting [4]), below 100 nM.
For the compound `CC1(NC(=O)Nc2ccc3ncc(-c4cn[nH]c4)cc3n2)CCC1` [Compound 0195], the IC50 in experiment [1] (setting [3]) is below 100 nM; in experiment [2] (setting [4]), 100 to 1000 nM.
The like results for `O=C(Nc1ccc2ncc(-c3cn[nH]c3)cc2n1)NC1CCOCC1` [Compound 0076] were, in that order, 100 to 1000 nM and below 100 nM.
For `COc1ccc(Nc2cnc3ccc(NC(=O)NC4CCCC4)nc3c2)cc1OC` [Compound 0030] the same measures were below 100 nM and above 10000 nM.
Regarding `O=C(NCCCCc1ccccc1)Nc1ccc2ncc(Nc3cn[nH]c3)cc2n1` [Compound 0250], the IC50 in experiment [1] (setting [3]) and in experiment [2] (setting [4]) was below 100 nM in each case.
For `CC(C)(C)NC(=O)Nc1ccc2ncc(-c3cnn(CCCN4CCOCC4)c3)cc2n1` [Compound 0185], the figures for the IC50 in experiment [1] (setting [3]) and in experiment [2] (setting [4]) were 1000 to 10000 nM and 100 to 1000 nM, respectively.
The like results for `COCCCNC(=O)Nc1ccc2ncc(-c3cn[nH]c3)cc2n1` [Compound 0100] were, in that order, 100 to 1000 nM and below 100 nM.
`CC(C)N1CCC(n2cc(-c3cnc4ccc(NC(=O)NC5CCCC5)nc4c3)cn2)CC1` [Compound 0231]: the IC50 in experiment [1] (setting [3]) is below 100 nM; in experiment [2] (setting [4]), 100 to 1000 nM.
The like results for `COCCOc1cc(-c2cnc3ccc(NC(=O)NC4CCCC4)nc3c2)ccc1O` [Compound 0021] were, in that order, 100 to 1000 nM and below 100 nM.
The like results for `Cc1c(-c2cnn(C)c2)cnc2ccc(NC(=O)NC3CCCC3)nc12` [Compound 0237] were, in that order, below 100 nM and below 100 nM.
For `CN(C)CCCn1cc(-c2cnc3ccc(NC(=S)NC4CCCC4)nc3c2)cn1` [Compound 0221] the same measures were below 100 nM and below 100 nM.
With `O=C(Nc1ccc2ncc(-c3c[nH]nc3C(F)(F)F)cc2n1)NC1CCCC1` [Compound 0124], the IC50 in experiment [1] (setting [3]) and in experiment [2] (setting [4]) was below 100 nM throughout.
As to `O=C(Nc1ccc2ncc(-c3cnn(CCCN4CC[C@H](F)C4)c3)cc2n1)NC1CCCC1` [Compound 0247], the IC50 in experiment [1] (setting [3]) and in experiment [2] (setting [4]) was below 100 nM in each case.
For `COc1nc2ccc(NC(=O)NC3CCCC3)nc2cc1-c1cnn(C)c1` [Compound 0234], the results for the IC50 in experiment [1] (setting [3]) and in experiment [2] (setting [4]) were 1000 to 10000 nM and above 10000 nM, respectively.
In the case of `O=C(Nc1ccc2ncc(-c3cnn(CCN4CCNCC4)c3)cc2n1)NC1CCCC1` [Compound 0051], the IC50 was 6 nM in experiment [1] (read-out: PI3Kα, IC50); below 100 nM in experiment [1] (setting [3]); 35 nM in experiment [2] (read-out: ERK2, IC50); below 100 nM in experiment [2] (setting [4]).
Turning to `CN1CCN(CCCn2cc(-c3cnc4ccc(NC(=O)NC5CCCC5)nc4c3)cn2)CC1` [Compound 0232], the IC50 in experiment [1] (setting [3]) and in experiment [2] (setting [4]) was below 100 nM in each case.
Consider `O=C(NCC1CCOC1)Nc1ccc2ncc(-c3cn[nH]c3)cc2n1` (centres unmarked) [Compound 0197], for which the IC50 is 100 to 1000 nM in experiment [1] (setting [3]) and below 100 nM in experiment [2] (setting [4]).
With `Cc1n[nH]cc1-c1cnc2ccc(NC(=O)NC3CCCC3)nc2c1` [Compound 0043], the IC50 in experiment [1] (read-out: PI3Kα, IC50) is 11 nM; in experiment [1] (setting [3]), below 100 nM; in experiment [2] (read-out: ERK2, IC50) it was 7 nM; in experiment [2] (setting [4]), below 100 nM.
In the case of `CN(C)Cc1nn(C)cc1-c1cnc2ccc(NC(=O)NC3CCCC3)nc2c1` [Compound 0217], the IC50 in experiment [1] (setting [3]) is below 100 nM; in experiment [2] (setting [4]), 100 to 1000 nM.
As to `CN(CCO)CCn1cc(-c2cnc3ccc(NC(=O)NC4CCCC4)nc3c2)cn1` [Compound 0045], the IC50 in experiment [1] (setting [3]) and in experiment [2] (setting [4]) was below 100 nM in each case.
In the case of `O=C(Nc1ccc2ncc(-n3ccnc3)cc2n1)NC1CCCC1` [Compound 0259], the IC50 in experiment [1] (setting [3]) is 100 to 1000 nM; in experiment [2] (setting [4]) it was below 100 nM.
For `C[C@H](C[C@H](C)Oc1ccccc1)NC(=O)Nc1ccc2ncc(-c3cn[nH]c3)cc2n1` [Compound 0170] the same measures were 100 to 1000 nM and below 100 nM.
The like results for `O=C(Nc1ccc2ncc(NC(=O)c3ccccc3)cc2n1)NC1CCCC1` [Compound 0134] were, in that order, below 100 nM and 1000 to 10000 nM.
As to `O=C(Nc1ccc2ncc(-c3cn[nH]c3)cc2n1)NC1CCN(Cc2ccccc2)C1` (centres unmarked) [Compound 0069], the IC50 was 133 nM in experiment [1] (read-out: PI3Kα, IC50); 100 to 1000 nM in experiment [1] (setting [3]); below 3 nM in experiment [2] (read-out: ERK2, IC50); below 100 nM in experiment [2] (setting [4]).
For the compound `COc1cccc(Nc2cnc3ccc(NC(=O)NC4CCCC4)nc3c2)c1` [Compound 0029], the IC50 was below 100 nM in experiment [1] (setting [3]) and above 10000 nM in experiment [2] (setting [4]).
The like results for `O=C(Nc1ccc2ncc(N3CC(O)C3)cc2n1)NC1CCCC1` [Compound 0038] were, in that order, below 100 nM and below 100 nM.
Regarding `C[C@H](C[C@H](C)NC(=O)Nc1ccc2ncc(-c3cn[nH]c3)cc2n1)Oc1ccccc1` [Compound 0162], the IC50 in experiment [1] (setting [3]) and in experiment [2] (setting [4]) was 100 to 1000 nM throughout.
On to `O=C(Nc1ccc2ncc(-c3cn[nH]c3)cc2n1)N[C@H]1CCC[C@@H]1OCc1ccccc1` [Compound 0159], for which the IC50 is below 100 nM in experiment [1] (setting [3]) and 100 to 1000 nM in experiment [2] (setting [4]).
As to `O=C(NCCc1c[nH]c2ccccc12)Nc1ccc2ncc(-c3cn[nH]c3)cc2n1` [Compound 0112], the IC50 was 100 to 1000 nM in experiment [1] (setting [3]) and below 100 nM in experiment [2] (setting [4]).
As to `C[C@@H]1CN(c2cnc3ccc(NC(=O)NC4CCCC4)nc3c2)C[C@H](C)O1` [Compound 0085], the IC50 is below 100 nM in experiment [1] (setting [3]) and 100 to 1000 nM in experiment [2] (setting [4]).
As for `COc1ccccc1CCCCNC(=O)Nc1ccc2ncc(-c3cn[nH]c3)cc2n1` [Compound 0168], the IC50 in experiment [1] (setting [3]) and in experiment [2] (setting [4]) was below 100 nM throughout.
Turning to `COC1CN(c2cnc3ccc(NC(=O)NC4CCCC4)nc3c2)C1` [Compound 0242], the IC50 in experiment [1] (setting [3]) and in experiment [2] (setting [4]) was 100 to 1000 nM throughout.
`N#Cc1cnc2ccc(NC(=O)NC3CCCC3)nc2c1` [Compound 0129]: the IC50 in experiment [1] (setting [3]) and in experiment [2] (setting [4]) was 1000 to 10000 nM throughout.
As for `O=C(NCCCCc1ccccc1Cl)Nc1ccc2ncc(-c3cn[nH]c3)cc2n1` [Compound 0165], the IC50 in experiment [1] (setting [3]) is 100 to 1000 nM; in experiment [2] (setting [4]), below 100 nM.
For the compound `S=C(Nc1ccc2ncc(-c3cnn(CCCN4CCNCC4)c3)cc2n1)NC1CCCC1` [Compound 0220], the IC50 in experiment [1] (setting [3]) and in experiment [2] (setting [4]) was below 100 nM each time.
Regarding `CCCCCCNC(=O)Nc1ccc2ncc(-c3cn[nH]c3)cc2n1` [Compound 0057], the IC50 in experiment [1] (setting [3]) and in experiment [2] (setting [4]) was below 100 nM each time.
`COc1cc(-c2cnc3ccc(NC(=O)NC4CCCC4)nc3c2)ccn1` [Compound 0022]: the IC50 in experiment [1] (setting [3]) and in experiment [2] (setting [4]) was below 100 nM in each case.
As to `C[C@@H](NC(=O)Nc1ccc2ncc(-c3cn[nH]c3)cc2n1)c1ccccc1` [Compound 0139], the IC50 in experiment [1] (setting [3]) was 100 to 1000 nM; in experiment [2] (setting [4]), below 100 nM.
The like results for `O=C(NCCCc1ccccc1)Nc1ccc2ncc(-c3cn[nH]c3)cc2n1` [Compound 0095] were, in that order, 100 to 1000 nM and below 100 nM.
For `O=C(Nc1ccc2ncc(-c3ccnc(O)c3)cc2n1)NC1CCCC1` [Compound 0023] the same measures were below 100 nM and 100 to 1000 nM.
For `CC(C)(C)OC(=O)N1CC[C@@H](NC(=O)Nc2ccc3ncc(-c4cn[nH]c4)cc3n2)C1` [Compound 0070] the same measures were 100 to 1000 nM and below 100 nM.
